Test results from patent publication US4020111A, “Propynyloxy alkyl arene insecticides” (priority 1975, dated 1977).

Key:
mice [1] = test: synergism of acute toxicity of Dimetilan, GS 13005, Secobarbital and Methadone (intraperitoneal); format: in vivo, Swiss albino white male mice; conditions: for number of mice dead: 48 hours, of eight mice
Method: The synergism of the acute toxicity of Dimetilan by various synergists was determined by tests on Swiss albino, white male mice aged 5 to 6 weeks and weighing 23 to 27 grams. The synergists and insecticides were dissolved in corn oil and the drugs were dissolved in distilled water. All compounds were administered intraperitoneally by injection in the lower quadrent of the abdomen. The synergist was administered in 0.1 ml of corn oil 1 hour prior to administration of the insecticide. Eight mice were treated, per dosage, with each synergist. The mice were watched for a minimum of 6 hours while held in a glass jar with bedding individually after intraperitoneal injection of the test solutions. Lethality was noted, the animals were weighed and transferred in cages, and food and water were supplied. Control mice were given 0.1 ml of corn oil at the time of administration of the synergist to the test mice and 0.1 ml corn oil plus Dimetilan at the time of administration of the insecticide to the test mice.
By the same procedure, the synergism of acute toxicity of GS 13005, Secobarbital and 6-dimethylamino-4,4-diphenyl-3-heptanone [Methadone] was determined.

[2] = tested on: Wilson strain house flies; format: in vivo, house fly (susceptible Wilson strain); conditions: for Contact Synergistic Ratio, Carbaryl (LC50 insecticide alone / LC50 with synergist): in vivo; for Contact Synergistic Ratio, Pyrolan (LC50 insecticide alone / LC50 with synergist): synergist to insecticide 5:1 by weight, 24 h
Method: The required solutions of the insecticide and of the synergist compound were prepared in acetone at a concentration of one milligram per milliliter. One-pint wide mouth glass jars were coated wiith the appropriate insecticide-synergist combination by rolling the jars containing aliquots of the appropriate solutions diluted to three milliliters with acetone to deposit, by evaporation, a film of the test materials. The flies were transferred under carbon dioxide anesthesia and held in the jar at room temperature. Perforated aluminum foil was used to cover the jars and to hold cotton saturated with 10% sugar solution. Counts were made at intervals, but the recorded mortality was based on 24-hour kill, rather than knockdown. All prostrate nonmoving flies were considered dead. A determination was then made of the contact synergistic ratio [SR], which is the ratio of the LC50 of insecticide alone to the LC50 of the insecticide when applied together with the synergist. The LC50 of the insecticide was estimated from a log-probit plot of percent kill versus dosage. […] The LC50 of the combination of insecticide and synergist was determined at a synergist to insecticide parts by weight ratio of five to one.

mice [3] = test: extension of Secobarbital sleeping time by synergists; format: in vivo, Swiss albino white male mice; conditions: Secobarbital 37 mg/K; for Relative Sleeping Time: treated/control
Method: (§1) The selectivity of the synergist compounds of this invention is illustrated by the results of sleeping-time extension tests and of acute toxicity tests on Swiss albino white male mice.
(§2) The effect of various synergist compounds on sleeping time of sodium secobarbital [Secobarbital] and of 3,3-diethyl-5-methyl-2,4-dioxypiperidine [Noludar] was determined by administering the drug, with and without synergist, to approximately 38-day old male mice weighing from 25 to 30 grams. Synergists were administered in each of two doses, 74.0 mg/kg (dilution being 2.0 mg/0.1 ml corn oil), and 110.0 mg/kg (dilution 3.0 mg/0.1 ml oil). Secobarbital was administered at a dose of 37.0 mg/kg (dilution 1.0 mg/0.1 ml water). Noludar was administered at a dose of 110.0 mg/kg (dilution 3.0 mg/0.1 ml water). The synergist was administered one hour prior to administration of the Secobarbital or Noludar. Secobarbital and Noludar sleeping times were obtained for both the control (drug only) and the treated (synergist plus drug) mice by noting the time lapse between the administration of the drug and the recovery of the righting reflex, i.e. when the animal regains conciousness and can walk up an inclined wooden tray with coordination. The relative sleeping time (R.S.) was noted. The R.S. is the extended sleeping time in the treated mice (synergist plus drug) divided by the sleeping time in the control mice (drug only). The mean sleeping time for the treated mice and the R.S. are shown on Table XXXXIV for various synergist compounds.

mice [4] = test: extension of Noludar sleeping time by synergists; format: in vivo, Swiss albino white male mice; conditions: Noludar 110 mg/K, synergist 110 mg/K; for Relative Sleeping Time: treated/control
Method: as §1, §2

[5] = tested on: IN/WHO strain house flies; test: topical application test, percent kill after 24 hours, IN/WHO strain; format: in vivo, house fly (susceptible IN/WHO strain); conditions: HRS 1422 alone 0.125 μg/fly
Method: In Table IX, and in the tables following it, the doses of topically applied insecticides and of synergists unless otherwise noted are expressed as micrograms per fly (μg/fly).
The synergistic effect of O-(2-propynyl) oximes with mobam was determined from topical application tests on susceptible, female, IN/WHO strain house flies and from tests on resistant, female, Rutgers A strain house flies. The synergist and insecticide were dissolved in ACS Grade acetone in such quantities that a 1.0μ liter volume applied to the thorax of 3-to-5 day old CO2 -anesthetized female adult house flies contained the desired dosage. After being treated, the flies were confined, 10 to a plaster petri dish, with 3-5 dishes/treatment, and held for 24-hr. observation of mortality. Reconstituted skim milk on cotton dental wicks was provided during the holding period. The percent kills after 24 hours are shown in Table X for the IN/WHO strain and Table XI for the Rutgers A strain.
The synergistic effect of benzyl 2-propynyl ethers with mobam was determined from topical application tests on IN/WHO and Rutgers A strain houseflies, following the procedure of Example 5. The percent kills after 24 hours are shown in Table XIV for the IN/WHO strain and in Table XV for the Rutgers A strain.
The effects of varying the insecticide dose and the synergist-insecticide ratio are further illustrated, with synergist compounds II-D, II-E, II-F and Mobam insecticide, in Tables XVI, XVII and XVIII.
The synergistic effect on IN/WHO flies of synergist compound II-K with Dimetilan, pyrolan, Baygon and HRS 1422 is illustrated by the 24 hour percent mortality data in Tables XIX, XX and XXI.
The effect on IN/WHO flies of synergist compound IV-C, identified in Table IV, with mobam was determined by the topical application procedure of Example 5.
The synergistic effect with Diazinon of compounds I-B, I-D, I-F, I-G, I-H and I-I, identified in Tables I and Ia, was determined from topical application tests on IN/WHO strain houseflies and on Rutgers A strain houseflies by the procedure of Example 5. The percent kills after 24 hours are shown in Table XXV for the IN/WHO strain and Table XXVI for the Rutgers A strain.
The synergistic effect with GS 13005 of compounds I-A, I-B, I-D, I-E, I-F, I-G and I-I was determined from topical application tests to IN/WHO strain, Rutgers A strain and polyvalent CH strain houseflies using the procedures of Example 5. The percent kills of the IN/WHO strain flies after 24 hours are shown in Table XXVIII; of the Rutgers A strain, in Table XXIX; and of the polyvalent CH strain, in Table XXX. The doses of insecticide alone to the CH strain files caused 10-40% mortality.
The synergistic effect with Diazinon and GS 13005 of various of the benzyl 2-propynyl ethers identified in Tables II and IIa was determined by topical application tests on IN/WHO strain, and Rutgers A strain and polyvalent, resistant, CH strain houseflies using the procedures of Example 5. The percent kills after 24 hours of IN/WHO strain flies are shown in Table XXXI; of Rutgers A strain flies, in Table XXXII; and of CH strain flies, in Table XXXIII. The doses of insecticide alone to the CH strain flies caused 10-40% mortality.
The synergist effect on IN/WHO flies of synergist compound II-K with Gardona and Bidrin is illustrated by the 24 hour percent mortality data in Tables XXXIV and XXXV.
The synergistic effect on IN/WHO strain flies and Rutgers A strain flies of compound IV-C with GS 13005 and with Diazinon was determined by the topical application procedure of Example 5. The percent kills of IN/WHO strain flies after 24 hours are shown in Tables XXXVI and XXXVII; the percent kills of Rutgers A strain flies are shown in Tables XXXVIII and XXXIX.

[6] = Dimetilan 8 mg/kg + synergist 240 mg/kg ip
[7] = Dimetilan 8 mg/kg + synergist 80 mg/kg ip

Structure (SMILES) | Contact Synergistic Ratio, Carbaryl (LC50 insecticide alone / LC50 with synergist) [2] | Contact Synergistic Ratio, Pyrolan (LC50 insecticide alone / LC50 with synergist) [2] | Mean Sleeping Time (mice [3]; synergist 110 mg/K) [min] | Relative Sleeping Time (mice [3]; synergist 110 mg/K) | Mean Sleeping Time (mice [4]) [min] | Relative Sleeping Time (mice [4]) | number of mice dead (mice [1]; [6]) | Mean Sleeping Time (mice [3]; synergist 74 mg/K) [min] | Relative Sleeping Time (mice [3]; synergist 74 mg/K) | number of mice dead (mice [1]; [7]) | also measured
CCC(=O)C(CC(C)N(C)C)(c1ccccc1)c1ccccc1 (stereo not shown) [Methadone, 6-dimethylamino-4,4-diphenyl-3-heptanone, reference compound] |  |  |  |  |  |  |  |  |  |  | mice lethality (number dead) (mice [1]; control: Methadone 32 mg/kg in 0.1 ml corn oil): 2
C#CCn1nc(Cl)c2ccccc21 [III-B] | 117 | 30 | 6 | 1.3 | 46 | 1.0 | 0 |  |  |  | 
C#CCOCc1ccc(Cl)c([N+](=O)[O-])c1 [II-M] |  |  | 47 | 2 | 47 | 2.1 | 3 | 29 | 1.0 | 0 | 
C#CCON=Cc1ccc(N(C)C)cc1 [I-C] | 200 | 20 | 108 | 1.8 | 34 | 1.0 | 0 | 30 | 1.1 |  | 
C#CCOCc1ccc(Cl)cc1[N+](=O)[O-] [II-J] |  |  | 30 | 1.4 | 70 | 2.2 | 4 | 27 | 1.0 | 0 | mice lethality (number dead) (mice [1]; GS 13005 71 mg/kg + synergist 213 mg/kg): 6; mice lethality (number dead) (mice [1]; Methadone 32 mg/kg + synergist 215 mg/kg): 3; mice lethality (number dead) (mice [1]; Secobarbital 90 mg/kg + synergist 215 mg/kg): 0
C#CCOCc1ccc2c(c1)OCO2 [II-G] | 100 | 15 |  |  |  |  |  |  |  |  | 
C#CCOCc1ccc([N+](=O)[O-])cc1Cl [II-N] |  |  | 39 | 1.7 | 58 | 1.9 | 4 | 20 | 1.0 | 0 | 
C#CCOCc1cccc(Cl)c1[N+](=O)[O-] [II-I] |  |  | 32 | 1.3 | 56 | 1.8 | 3 | 31 | 1.2 | 0 | 
C#CCn1ncc2cc([N+](=O)[O-])ccc21 [III-A] | 143 | 30 | 50 | 1.1 | 32 | 1.0 | 0 |  |  |  | 
C#CCOCc1ccc(Cl)cc1Cl [II-B] | 50 | 15 |  |  |  |  |  |  |  |  | 
CNC(=O)Oc1cc(C(C)C)cc(C(C)C)c1 [HRS 1422, 3,5-di-isopropylphenyl methylcarbamate, reference compound] |  |  |  |  |  |  |  |  |  |  | 24 hour percent mortality [5]: 0%
C#CCOCc1ccc([N+](=O)[O-])c(Cl)c1 [II-O] |  |  | 26 | 1.1 | 52 | 2.4 | 2 |  |  | 0 | 
C#CCn1nc(Cl)c2ccc([N+](=O)[O-])cc21 [III-C, N-(2-propynyl)-3-chloro-6-nitroindazole] | 53 | 10 |  |  |  |  |  |  |  |  | 
C#CCOCc1ccc(Cl)cc1 [II-A] | 50 | 7 |  |  |  |  |  |  |  |  | 
C=CCC1(C(C)CCC)C(=O)NC(=O)NC1=O (stereo not shown) [Secobarbital, sodium secobarbital, reference compound] |  |  |  |  |  |  |  |  |  |  | mice lethality (number dead) (mice [1]; control: Secobarbital 90 mg/kg in 0.1 ml corn oil): 0
C#CCOCc1cccc([N+](=O)[O-])c1Cl [II-L] |  |  | 42 | 1.8 | 56 | 1.8 | 5 | 31 | 1.0 | 0 | 
C#CCOC(c1cccc2ccccc12)C(C)[N+](=O)[O-] (stereo not shown) [IV-B, 2-propynyl 1-naphthyl-2-nitropropyl ether] | 50 | 10 |  |  |  |  |  |  |  |  | 
